Measured values: ChEMBL document CHEMBL1201862, “PubChem BioAssay data set” (2004)
Calls of active or inactive are those of the source.

Key:
[1] = target: T1, Runt-related transcription factor 1/Core-binding factor subunit beta (Homo sapiens, UniProt Q01196+Q13951); experiment: Runt domain/CBFb-SMMHC interaction disruptors – biochemical, TR-FRET (AID 1438); format: protein assay
[2] = target: T2, Voltage-gated N-type calcium channel alpha-1B subunit/Amyloid beta A4 precursor protein-binding family A member 1 (Homo sapiens, UniProt Q00975+Q02410); experiment: disruptors of Mint-PDZ/N-type channel peptide interaction – biochemical, HTRF, SAR follow-up (AID 2489); format: functional
T2 sequence (Q00975 whole entry): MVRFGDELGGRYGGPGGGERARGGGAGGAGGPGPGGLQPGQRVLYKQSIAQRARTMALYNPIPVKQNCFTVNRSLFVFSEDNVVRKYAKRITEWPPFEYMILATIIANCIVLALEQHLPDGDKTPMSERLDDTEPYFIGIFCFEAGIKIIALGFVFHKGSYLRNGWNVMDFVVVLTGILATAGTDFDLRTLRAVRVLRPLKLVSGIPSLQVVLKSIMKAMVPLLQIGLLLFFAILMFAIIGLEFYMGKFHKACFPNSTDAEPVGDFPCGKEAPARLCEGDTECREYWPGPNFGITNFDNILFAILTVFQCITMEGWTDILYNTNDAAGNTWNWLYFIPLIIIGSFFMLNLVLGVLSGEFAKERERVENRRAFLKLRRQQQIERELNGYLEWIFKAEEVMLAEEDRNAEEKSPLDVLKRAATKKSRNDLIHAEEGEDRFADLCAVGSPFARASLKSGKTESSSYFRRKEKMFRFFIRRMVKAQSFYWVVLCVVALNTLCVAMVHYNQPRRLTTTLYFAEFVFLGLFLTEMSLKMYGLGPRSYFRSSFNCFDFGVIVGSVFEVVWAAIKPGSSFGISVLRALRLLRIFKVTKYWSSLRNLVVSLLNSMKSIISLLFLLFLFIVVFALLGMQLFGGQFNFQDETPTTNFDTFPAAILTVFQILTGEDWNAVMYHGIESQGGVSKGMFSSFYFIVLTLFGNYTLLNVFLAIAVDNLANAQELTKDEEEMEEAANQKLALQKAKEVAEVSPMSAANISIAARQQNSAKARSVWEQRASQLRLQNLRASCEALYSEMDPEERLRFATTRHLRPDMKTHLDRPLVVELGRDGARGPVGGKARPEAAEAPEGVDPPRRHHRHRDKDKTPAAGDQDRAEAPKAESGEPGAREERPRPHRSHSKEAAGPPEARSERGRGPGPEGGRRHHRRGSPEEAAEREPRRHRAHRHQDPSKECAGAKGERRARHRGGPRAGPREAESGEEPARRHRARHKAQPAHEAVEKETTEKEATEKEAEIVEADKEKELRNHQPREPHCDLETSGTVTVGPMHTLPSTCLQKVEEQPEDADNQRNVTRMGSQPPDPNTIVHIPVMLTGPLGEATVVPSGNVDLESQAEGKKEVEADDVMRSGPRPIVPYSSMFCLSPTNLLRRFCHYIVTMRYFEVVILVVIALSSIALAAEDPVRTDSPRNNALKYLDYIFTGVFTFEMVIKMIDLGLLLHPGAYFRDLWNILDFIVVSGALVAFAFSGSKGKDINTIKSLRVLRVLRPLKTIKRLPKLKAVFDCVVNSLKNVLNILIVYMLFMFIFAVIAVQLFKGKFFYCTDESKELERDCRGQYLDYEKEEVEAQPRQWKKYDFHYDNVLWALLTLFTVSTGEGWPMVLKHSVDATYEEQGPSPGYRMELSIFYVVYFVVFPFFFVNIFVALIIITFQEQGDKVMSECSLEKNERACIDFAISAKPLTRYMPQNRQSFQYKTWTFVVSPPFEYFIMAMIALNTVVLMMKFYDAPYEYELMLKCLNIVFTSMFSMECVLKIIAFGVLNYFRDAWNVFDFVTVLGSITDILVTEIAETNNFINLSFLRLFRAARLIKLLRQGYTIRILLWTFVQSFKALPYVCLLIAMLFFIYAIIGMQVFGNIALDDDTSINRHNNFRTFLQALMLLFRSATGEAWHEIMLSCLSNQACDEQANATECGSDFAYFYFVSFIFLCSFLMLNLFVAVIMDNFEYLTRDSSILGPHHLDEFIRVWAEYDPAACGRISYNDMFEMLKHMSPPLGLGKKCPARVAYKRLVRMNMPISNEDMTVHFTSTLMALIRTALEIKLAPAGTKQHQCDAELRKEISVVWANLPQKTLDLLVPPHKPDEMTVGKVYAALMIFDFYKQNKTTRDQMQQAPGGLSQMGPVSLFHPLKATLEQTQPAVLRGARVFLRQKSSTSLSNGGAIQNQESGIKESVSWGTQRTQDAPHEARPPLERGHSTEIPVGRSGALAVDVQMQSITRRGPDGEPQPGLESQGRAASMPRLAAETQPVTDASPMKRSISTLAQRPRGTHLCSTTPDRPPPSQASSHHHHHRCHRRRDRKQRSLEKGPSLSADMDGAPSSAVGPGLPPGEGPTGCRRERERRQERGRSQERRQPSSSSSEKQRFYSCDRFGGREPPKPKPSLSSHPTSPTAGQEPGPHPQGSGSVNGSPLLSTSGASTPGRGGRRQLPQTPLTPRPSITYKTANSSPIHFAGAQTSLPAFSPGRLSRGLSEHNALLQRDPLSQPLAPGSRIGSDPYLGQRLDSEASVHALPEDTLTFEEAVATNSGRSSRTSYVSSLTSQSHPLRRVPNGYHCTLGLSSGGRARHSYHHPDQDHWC
T2 sequence (Q02410 whole entry): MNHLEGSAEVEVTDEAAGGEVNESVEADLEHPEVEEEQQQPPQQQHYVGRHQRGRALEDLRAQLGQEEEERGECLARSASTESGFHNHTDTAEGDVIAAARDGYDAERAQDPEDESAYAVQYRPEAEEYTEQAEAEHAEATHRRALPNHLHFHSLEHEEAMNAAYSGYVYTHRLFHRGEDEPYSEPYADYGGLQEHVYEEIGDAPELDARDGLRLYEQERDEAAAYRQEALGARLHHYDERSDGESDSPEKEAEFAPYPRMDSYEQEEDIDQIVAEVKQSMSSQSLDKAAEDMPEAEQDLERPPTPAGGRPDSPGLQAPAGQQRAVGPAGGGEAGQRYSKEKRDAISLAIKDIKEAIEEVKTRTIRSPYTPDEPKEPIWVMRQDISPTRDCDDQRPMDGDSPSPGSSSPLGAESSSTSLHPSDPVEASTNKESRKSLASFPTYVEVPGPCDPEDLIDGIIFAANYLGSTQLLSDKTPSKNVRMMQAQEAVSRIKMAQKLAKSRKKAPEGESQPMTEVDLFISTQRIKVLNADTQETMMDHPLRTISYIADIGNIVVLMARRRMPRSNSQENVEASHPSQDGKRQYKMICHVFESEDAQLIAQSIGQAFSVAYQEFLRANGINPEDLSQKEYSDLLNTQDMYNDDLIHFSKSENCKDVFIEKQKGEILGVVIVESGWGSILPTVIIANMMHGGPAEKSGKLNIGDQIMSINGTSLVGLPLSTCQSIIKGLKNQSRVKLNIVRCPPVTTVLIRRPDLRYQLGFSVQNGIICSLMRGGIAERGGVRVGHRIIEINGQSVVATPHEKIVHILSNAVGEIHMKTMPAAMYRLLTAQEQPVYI

[3] = target: T3, Probable nicotinate-nucleotide adenylyltransferase (Staphylococcus aureus (strain N315), UniProt P65502); format: functional, Staphylococcus aureus subsp. aureus N315;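 on IC50 Mean: confirmatory dose-response retesting of NadD inhibitor hits first found in an ultra-high-throughput screen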
T3 sequence (P65502 whole entry): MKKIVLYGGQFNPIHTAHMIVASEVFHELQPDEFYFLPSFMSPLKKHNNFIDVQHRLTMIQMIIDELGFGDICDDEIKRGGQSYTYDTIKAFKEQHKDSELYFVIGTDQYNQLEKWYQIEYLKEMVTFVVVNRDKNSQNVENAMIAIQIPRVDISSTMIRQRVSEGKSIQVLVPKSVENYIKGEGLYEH

[4] = target: Induced myeloid leukemia cell differentiation protein Mcl-1 (Homo sapiens, UniProt Q07820); format: functional
[5] = target: T2, Voltage-gated N-type calcium channel alpha-1B subunit/Amyloid beta A4 precursor protein-binding family A member 1; format: protein assay
[6] = target: NS3 (Hepatitis C virus, UniProt A3EZJ3); experiment: PubChem AID 2173; set-up: species or system Hepacivirus hominis
[7] = target: T2, Voltage-gated N-type calcium channel alpha-1B subunit/Amyloid beta A4 precursor protein-binding family A member 1; format: protein assay; remark: listed apart in the source
[8] = target: T3, Probable nicotinate-nucleotide adenylyltransferase; format: functional, Staphylococcus aureus subsp. aureus N315; settings: read-out: IC50_Mean
[9] = target: T1, Runt-related transcription factor 1/Core-binding factor subunit beta; experiment: disruptors of Runt domain/CBFb-SMMHC interaction – biochemical, FRET, Cerulean-Runt, Venus-CBFb-SMMHC, uHTS, […] (AID 1434); format: protein assay
[10] = target: Peroxisome proliferator-activated receptor gamma (Homo sapiens, UniProt P37231); experiment: PPARg transcriptional activation, reporter cells – cell-based, luminescence, assay provider, dose response (AID 504447); format: functional
[11] = target: T4, Cannabinoid receptor 1 (Homo sapiens, UniProt P21554); experiment: SAR analysis of antagonists of the Cannabinoid Receptor 1 using an Image-Based Assay - Set 3. [Related pubchem assays (depositor defined):AID1961, AID1965]; format: functional
[12] = target: T5, G-protein coupled receptor 35 (Homo sapiens, UniProt Q9HC97); experiment: SAR analysis of Antagonists of the GPR35 Receptor using an Image-Based Assay - Set 4. [Related pubchem assays (depositor defined):[…]]; format: functional
T5 sequence (Q9HC97 whole entry): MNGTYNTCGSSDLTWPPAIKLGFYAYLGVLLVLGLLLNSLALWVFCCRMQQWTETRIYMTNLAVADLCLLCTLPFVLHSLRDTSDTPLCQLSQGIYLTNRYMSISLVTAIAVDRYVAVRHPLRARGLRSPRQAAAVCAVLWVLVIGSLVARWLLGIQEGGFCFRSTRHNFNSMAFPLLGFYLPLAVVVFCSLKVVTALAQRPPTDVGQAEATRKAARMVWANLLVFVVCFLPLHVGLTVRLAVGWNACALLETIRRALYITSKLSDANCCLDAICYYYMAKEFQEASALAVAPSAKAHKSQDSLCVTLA

[13] = target: T6, Cannabinoid receptor 2 (Homo sapiens, UniProt P34972); experiment: SAR analysis of antagonists of the Cannabinoid Receptor 2 using an Image-Based Assay - Set 2. [Related pubchem assays (depositor defined):AID1961, AID1965]; format: functional
T6 sequence (P34972 whole entry): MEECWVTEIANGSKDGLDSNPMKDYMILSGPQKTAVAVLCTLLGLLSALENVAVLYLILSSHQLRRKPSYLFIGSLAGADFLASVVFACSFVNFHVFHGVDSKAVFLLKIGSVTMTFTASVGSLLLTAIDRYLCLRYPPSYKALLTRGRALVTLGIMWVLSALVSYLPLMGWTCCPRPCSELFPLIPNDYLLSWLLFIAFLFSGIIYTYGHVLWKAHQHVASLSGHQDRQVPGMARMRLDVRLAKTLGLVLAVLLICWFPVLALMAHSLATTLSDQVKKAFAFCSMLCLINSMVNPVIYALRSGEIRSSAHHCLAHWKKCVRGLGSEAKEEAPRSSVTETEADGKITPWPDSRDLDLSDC

[14] = target: T6, Cannabinoid receptor 2; experiment: SAR analysis of agonists of the Cannabinoid Receptor 2 using an Image-Based Assay - Set 2. [Related pubchem assays (depositor defined):AID1961, AID1965]; format: functional
[15] = target: T5, G-protein coupled receptor 35; experiment: SAR analysis of Agonists of the GPR35 Receptor using an Image-Based Assay - Set 3. [Related pubchem assays (depositor defined):AID1961, AID1965]; format: functional
[16] = target: T4, Cannabinoid receptor 1; experiment: SAR analysis of agonists of the Cannabinoid Receptor 1 using an Image-Based Assay - Set 3. [Related pubchem assays (depositor defined):AID1961, AID1965]; format: functional
[17] = target: G-protein coupled receptor 55 (Homo sapiens, UniProt Q9Y2T6); experiment: SAR analysis of selective Agonists of GPR55 using an Image-Based Assay - Set 2. [Related pubchem assays (depositor defined):AID1961, AID1965]; format: functional
Chain of G-protein coupled receptor 55 (Q9Y2T6 whole entry, the tested form may be a part): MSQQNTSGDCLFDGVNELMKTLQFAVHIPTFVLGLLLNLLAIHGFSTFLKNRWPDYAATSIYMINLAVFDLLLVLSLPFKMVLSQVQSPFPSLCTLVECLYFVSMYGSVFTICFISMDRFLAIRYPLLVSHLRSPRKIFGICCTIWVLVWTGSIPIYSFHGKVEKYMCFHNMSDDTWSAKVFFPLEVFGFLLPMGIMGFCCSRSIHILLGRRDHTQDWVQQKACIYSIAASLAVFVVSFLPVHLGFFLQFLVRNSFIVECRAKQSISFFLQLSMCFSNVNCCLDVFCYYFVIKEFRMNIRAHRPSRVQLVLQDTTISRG

[18] = target: T7, Type-1 angiotensin II receptor (Homo sapiens, UniProt P30556); experiment: agonist activity at AGTR1 – cell-based, uHTS hits, selectivity assay for APJ receptor agonist project, dose response (AID 488865); format: functional;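 further: beta-arrestin recruitment to AT1 measured by enzyme fragment complementation luminescence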
T7 sequence (P30556 whole entry): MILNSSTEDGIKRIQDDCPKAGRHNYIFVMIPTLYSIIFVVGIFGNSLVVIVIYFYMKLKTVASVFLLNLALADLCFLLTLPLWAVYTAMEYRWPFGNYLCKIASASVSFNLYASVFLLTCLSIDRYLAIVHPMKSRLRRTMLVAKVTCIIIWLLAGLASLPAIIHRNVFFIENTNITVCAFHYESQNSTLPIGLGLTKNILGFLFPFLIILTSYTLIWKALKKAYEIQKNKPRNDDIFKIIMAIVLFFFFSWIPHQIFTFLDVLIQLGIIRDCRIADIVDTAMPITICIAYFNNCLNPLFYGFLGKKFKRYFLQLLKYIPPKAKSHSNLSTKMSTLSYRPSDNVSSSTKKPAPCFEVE

T1 sequence (Q01196 whole entry, the tested form may be a part): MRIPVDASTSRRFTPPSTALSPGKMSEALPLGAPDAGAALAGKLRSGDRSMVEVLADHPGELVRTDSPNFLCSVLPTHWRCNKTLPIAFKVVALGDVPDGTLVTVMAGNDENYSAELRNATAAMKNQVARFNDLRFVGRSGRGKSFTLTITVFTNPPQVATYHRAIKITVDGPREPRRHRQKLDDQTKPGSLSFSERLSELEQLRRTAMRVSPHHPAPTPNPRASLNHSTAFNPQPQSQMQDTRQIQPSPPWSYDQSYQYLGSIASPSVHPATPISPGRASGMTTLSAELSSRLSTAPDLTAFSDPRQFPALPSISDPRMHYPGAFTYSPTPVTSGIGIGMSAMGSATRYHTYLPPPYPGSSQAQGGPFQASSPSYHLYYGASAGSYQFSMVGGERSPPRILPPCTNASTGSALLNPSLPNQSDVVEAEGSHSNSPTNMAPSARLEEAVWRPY
T1 sequence (Q13951 whole entry, the tested form may be a part): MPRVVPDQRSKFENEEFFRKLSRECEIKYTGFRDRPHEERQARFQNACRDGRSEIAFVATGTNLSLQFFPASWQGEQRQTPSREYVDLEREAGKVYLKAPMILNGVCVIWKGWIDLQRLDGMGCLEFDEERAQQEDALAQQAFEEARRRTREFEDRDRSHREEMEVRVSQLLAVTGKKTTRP

Compound: O=C(COC(=O)c1c2c(nc3ccccc13)/C(=C/c1ccco1)CC2)NC1CCCC1
- IC50 [1]: 10.4 µM (active)
- IC50 [2]: 3.75 µM (active)
- IC50 [3]: 6.95 µM (active)
- IC50 [4]: 6.5 µM (active)
- IC50 [5]: 5.81 µM (active)
- IC50 [6]: 12.6 µM (not active)
- IC50 [7]: 9.12 µM (active)
- IC50 [8]: 15 µM (active)
- IC50 [9]: > 100 µM (inactive)

Compound: COc1cccc(Cn2nc3c4cc(F)ccc4n(Cc4ccc(F)cc4)cc-3c2=O)c1
- EC50 [10]: 0.502 µM (active)

Compound: COc1ccc(S(=O)(=O)N2CCOCC2)cc1NC(=O)c1ccc(OCC(C)C)c(OC)c1
- IC50 [11]: > 32 µM (inactive)
- IC50 [12]: > 32 µM (inactive)
- IC50 [13]: > 32 µM (inactive)
- EC50 [14]: > 32 µM (inactive)
- EC50 [15]: > 32 µM (inactive)
- EC50 [16]: > 32 µM (inactive)
- EC50 [17]: 4.56 µM (active)

Compound: CSc1cccc(NC(=S)NC(=O)CCc2ccccc2)c1
- EC50 [18]: > 100 µM (inactive)
